PMC10800023 (Human Molecular Genetics, 2023)
“And” between values parts separate entries of the source, which are not always exact repeats. Equal values may be shown once. Read-outs that look alike come from different tables or passages of the source.

How the values were obtained:
[1] = cited from earlier work
[2] = system: STAT1; test: GRE-mediated STAT1 in cultured BMDM; format: cell-based, mouse; settings: for EC50: Mus musculus, BMDM, corticosteroid overnight, LPS 10 ng/ml 3 h; for STAT1/IFN-γ Ratio: ratio of EC50 values
Source text: (§1) The immunosuppressive activity of corticosteroids is in part due to their inhibition of NF-κB-induced cytokines including TNF-α, IL-6, and IL-12. Furthermore, expression of some inflammatory-mediated proteins such as STAT1 is mediated via GREs, and not the NF-κB pathway. We therefore expanded murine bone marrow-derived macrophages (BMDM) in vitro, and after 5 days of culture tested the relative efficacy of different corticosteroids to prevent LPS-induced cytokine secretion.
(§2) BMDM mouse bone marrow derived macrophage (mBMDM) cultures were generated from the femur and tibia from two 7–11-week-old C57BL/6 mice. Briefly, bone marrow cells were carefully flushed out, suspended in ice-cold PBS, and spun down. After the supernatant was removed, the pelleted cells were resuspended in 2 ml (ammonium-Chloride-Potassium) ACK lysis buffer (Thermo Fisher, Cat# A1049201) and incubated for 3–4 min, followed by 14 ml ice-cold PBS, and then spun down. The pelleted cells were resuspended in 43 ml complete media [Roswell Park Memorial Institute (RPMI 1640), Gibco, Cat# 11875-093; 10% heat-inactivated fetal bovine serum (HiFBS), HyClone, Cat# SH30406.02; 1% 2 mM L-glutamine; 1% penicillin-streptomycin, Sigma, Cat# P4333-100ML; 1% MEM NEAA, Gibco, Cat# 11140-050; 1% Na Pyruvate, Gibco, Cat# 11360-070; 55 μM 2-Mercaptoethanol, Gibco, Cat#21985-023]. A total of 25 ng/ml M-CSF was added to the culture. Cells were dispensed as 200 μl per well into a 96-well tissue culture plate and incubated at 37°C, 5% CO2 for 4 days. On Day 5, media were removed and 100 μl fresh complete media containing M-CSF were added. Corticosteroids were added and cells incubated at 37°C and 5% CO2 overnight. Untreated cells were incubated with media. On Day 6, 10 ng/ml of lipopolysaccharide (LPS) was added and incubated at 37°C and 5% CO2 for 3 h followed by removal of cell media for cytokine analysis. Cytokines were measured using a Meso Scale Discovery (MSD), V-PLEX kit (V-PLEX Cat# K-15048D, www.mesoscale.com).

[3] = system: B10-mdx mice; test: Femur bone density by micro-CT (Study 2); format: in vivo, mouse; settings: for bone density measured by microCT: 4 months of treatment
Method: To evaluate the similarities and differences of potential side effects of the three corticosteroids, plasma/blood were evaluated ex vivo for their effects on endogenous corticosteroid after 14 days of dosing (Study 1) and glucose levels (Study 1) after 11 days of dosing. Bone formation was measured by evaluating osteocalcin levels in Study 1 after 14 days. Bone density was measured by micro-computed tomography (micro-CT) in Study 2 after 4 months.
Study 2: The goal of the second study was to evaluate corticosteroid side effects and efficacy in a longer study (4 months). After 28 days of dosing, mice were tested for depression-like behavior using a measure of corticosteroid-induced depression (FST followed by TST). Muscle function was tested via grip strength. Tests for depression and for grip-strength were done in a blinded manner. After 4 months, mice were euthanized, and tissues were collected. Bone from whole left leg was collected for micro-CT analysis. The number of animals per group was as follows: WT, n = 16; B10-mdx, n = 15; corticosteroid-treated groups, n = 8–10.
Micro-CT analysis was performed by the Rutgers University Molecular Imaging Center (RUMIC). Briefly, skeletons were harvested at trial endpoint and stored in 70% ethanol and transferred for imaging analysis. Hindlimbs were soaked in isotonic saline solution overnight to rehydrate before imaging. […] The rotation step was 0.4° through 180° total rotation, and three images were averaged at each rotation step. Each distal femur was scanned separately, and images were saved. Scan images were reconstructed using Skyscan nRecon software.

[4] = MDCK control cell permeability (not transfected with human P-gp); settings: dog, pH 7.4
Method: To measure transport by P-gp, Madin-Darby canine kidney (MDCK) cells that had been transfected with the human P-gp (MDR1) gene were plated in a Transwell plate and cultured until polarized. MDCK cells that are not transfected with human P-gp were used as a control. Compounds were added to either the apical or the basolateral side of the cells, and transport across the membrane was measured.
Testing for permeability and MDR1 substrate assessment was done in MDCK cells transfected to overexpress human MDR1 gene that encodes efflux transporter protein (P-gp). […] Briefly, cells were maintained in Dulbecco’s modified Eagle medium (DMEM) with 10% fetal bovine serum and 1% penicillin/streptomycin in a humidified incubator at 37°C with 5% CO2. The study was performed by Absorption Systems (now Pharmaron; Exton, PA). The MDR1-MDCK and MDCK control cell lines were seeded into 12-well plates for 7 days. Integrity of monolayer tight junctions was monitored preincubation by transepithelial electrical resistance (TEER) measurement. […] The samples were withdrawn at t = 0 and 60 min from the receiver and donor compartments. Compound levels were measured by LC/MS–MS. Additionally, post-assay, cell monolayer integrity was checked with Lucifer Yellow permeability measurement. Transport assay low- and high-permeability control compounds were run in parallel for assay validation. Papp values were calculated considering compound concentrations across the monolayer and cell surface area. Efflux ratios were calculated based on Papp B > A over Papp A > B. The difference between the MDR1-MDCK and the MDCK cell efflux ratios was also calculated. […] Compounds were classified by Absorption Systems/Pharmaron as follows: […]

[5] = system: IFN-γ; test: LPS-induced IFN-γ in cultured BMDM; format: cell-based; settings: Mus musculus, corticosteroid overnight, LPS 10 ng/ml 3 h
Source text: as §1, §2

[6] = system: B10-mdx mice; test: RNA-sequencing of tissues after 2 weeks of treatment (Study 1); settings: vs vehicle-treated B10-mdx
[7] = system: IL-12; test: LPS-induced IL-12 in cultured BMDM; format: cell-based; settings: Mus musculus, corticosteroid overnight, LPS 10 ng/ml 3 h
Source text: as §1, §2

[8] = system: mineralocorticoid receptor; parameters: method as in PMID 30745312; settings: cited from earlier work
[9] = human, 2 mg/kg, ref Conklin et al., Pharmacol Res. 2018
[10] = human, 6 mg/kg, ref Conklin et al., Pharmacol Res. 2018

CC(=O)OCC(=O)[C@@]12N=C(C)O[C@@H]1C[C@H]1[C@@H]3CCC4=CC(=O)C=C[C@]4(C)[C@H]3[C@@H](O)C[C@@]12C [Deflazacort]
Cmax ([1]; human, 0.9 mg/kg, ref FDA 208684,208685Orig1s000ClinPharmR.pdf): 329 ng/mL
AUC (Day 1) ([1]; human, 0.9 mg/kg, ref FDA 208684,208685Orig1s000ClinPharmR.pdf, listed as Emflaza): 567 ng·h/mL and 630 ng·h/mL
EC50 [2]: 3.1 nM
STAT1/IFN-γ Ratio [2]: 11×
bone density measured by microCT [3]: not reaching significance
Papp A→B at 60 min, 1 μM [4]: 12.3 ×10⁻⁶ cm/s
Papp A→B at 60 min, 10 μM [4]: 6.66 ×10⁻⁶ cm/s
Papp B→A at 60 min, 1 μM [4]: 11.6 ×10⁻⁶ cm/s
Papp B→A at 60 min, 10 μM [4]: 6.7 ×10⁻⁶ cm/s
efflux ratio at 60 min, 1 μM [4]: 0.949
efflux ratio at 60 min, 10 μM [4]: 1.01
EC50 [5]: 0.29 nM
Number of genes, Quadriceps, Down-regulated ([6]; 1.25 mg/kg daily): 4245
Number of genes, Quadriceps, No Change ([6]; 1.25 mg/kg daily): 7767
Number of genes, Quadriceps, Up-regulated ([6]; 1.25 mg/kg daily): 4298
Number of genes, Whole Brain, Down-regulated ([6]; 1.25 mg/kg daily): 31
Number of genes, Whole Brain, Up-regulated ([6]; 1.25 mg/kg daily): 1
Number of genes, Quadriceps, Down-regulated ([6]; 2.5 mg/kg daily): 3706
Number of genes, Quadriceps, No Change ([6]; 2.5 mg/kg daily): 9024
Number of genes, Quadriceps, Up-regulated ([6]; 2.5 mg/kg daily): 3580
Number of genes, Whole Brain, Down-regulated ([6]; 2.5 mg/kg daily): 4
Number of genes, Whole Brain, No Change ([6]; 2.5 mg/kg daily): 16306
Number of genes, Whole Brain, Up-regulated ([6]; 2.5 mg/kg daily): 0
Number of genes, Quadriceps, Down-regulated ([6]; 5 mg/kg daily): 5354
Number of genes, Quadriceps, No Change ([6]; 5 mg/kg daily): 4889
Number of genes, Quadriceps, Up-regulated ([6]; 5 mg/kg daily): 6067
Number of genes, Whole Brain, Down-regulated ([6]; 5 mg/kg daily): 39
Number of genes, Whole Brain, No Change ([6]; 5 mg/kg daily): 16214
Number of genes, Whole Brain, Up-regulated ([6]; 5 mg/kg daily): 57
Number of genes, Quadriceps, Down-regulated ([6]; 15 mg/kg daily): 5462
Number of genes, Quadriceps, No Change ([6]; 15 mg/kg daily): 5024
Number of genes, Quadriceps, Up-regulated ([6]; 15 mg/kg daily): 5824
Number of genes, Whole Brain, Down-regulated ([6]; 15 mg/kg daily): 231
Number of genes, Whole Brain, No Change ([6]; 15 mg/kg daily): 15981
Number of genes, Whole Brain, Up-regulated ([6]; 15 mg/kg daily): 98
EC50 [7]: 3.6 nM
effect on mineralocorticoid receptor signaling [8]: no effect

C[C@]12C=CC(=O)C=C1CC[C@@H]1[C@@H]2[C@@H](O)C[C@@]2(C)[C@H]1CC[C@]2(O)C(=O)CO [Prednisolone]
AUC (Day 1) ([1]; human adults, 0.35 mg/kg (20 mg/57 kg), AUC0-12, average of two formulations, ref Bashar et al., Dose Response 2018): 3301 ng·h/mL
Cmax ([1]; human adults, 0.35 mg/kg (20 mg/57 kg), average of two formulations, ref Bashar et al., Dose Response 2018): 659 ng/mL
EC50 [2]: 9.4 nM
bone density in the femur (micro-CT tissue mineral density) ([3]; 4 months, highest dose): significantly reduced bone density
EC50 [5]: 0.5 nM
Number of genes, Quadriceps, Down-regulated ([6]; 1.2 mg/kg daily): 3855
Number of genes, Quadriceps, No Change ([6]; 1.2 mg/kg daily): 8205
Number of genes, Quadriceps, Up-regulated ([6]; 1.2 mg/kg daily): 4250
Number of genes, Quadriceps, Down-regulated ([6]; 2.4 mg/kg daily): 5216
Number of genes, Quadriceps, Up-regulated ([6]; 2.4 mg/kg daily): 6030
Number of genes, Quadriceps, Down-regulated ([6]; 5 mg/kg daily): 4173
Number of genes, Quadriceps, No Change ([6]; 5 mg/kg daily): 7883
Number of genes, Quadriceps, Up-regulated ([6]; 5 mg/kg daily): 4254
EC50 [7]: 8.5 nM
effect on mineralocorticoid receptor signaling [8]: agonist

C[C@@H]1C[C@H]2[C@@H]3CCC4=CC(=O)C=C[C@]4(C)C3=CC[C@]2(C)[C@@]1(O)C(=O)CO [Vamorolone]
AUC (Day 1) [1, 9]: 761 ng·h/mL
Cmax [1, 9]: 199 ng/mL
AUC (Day 1) [1, 10]: 3279 ng·h/mL
Cmax [1, 10]: 856 ng/mL
EC50 [2]: 7.6 nM
STAT1/IFN-γ Ratio [2]: 10×
bone density measured by microCT [3]: not reaching significance
Papp A→B at 60 min, 10 μM [4]: 33.4 ×10⁻⁶ cm/s
Papp B→A at 60 min, 1 μM [4]: 25.2 ×10⁻⁶ cm/s
Papp B→A at 60 min, 10 μM [4]: 22.7 ×10⁻⁶ cm/s
efflux ratio at 60 min, 1 μM [4]: 0.755
efflux ratio at 60 min, 10 μM [4]: 0.746
EC50 [5]: 0.8 nM
Number of genes, Quadriceps, Down-regulated ([6]; 15 mg/kg daily): 3014
Number of genes, Quadriceps, No Change ([6]; 15 mg/kg daily): 9369
Number of genes, Quadriceps, Up-regulated ([6]; 15 mg/kg daily): 3927
Number of genes, Whole Brain, Down-regulated ([6]; 15 mg/kg daily): 138
Number of genes, Whole Brain, No Change ([6]; 15 mg/kg daily): 16068
Number of genes, Whole Brain, Up-regulated ([6]; 15 mg/kg daily): 104
Number of genes, Quadriceps, Down-regulated ([6]; 30 mg/kg daily): 3138
Number of genes, Quadriceps, No Change ([6]; 30 mg/kg daily): 10053
Number of genes, Quadriceps, Up-regulated ([6]; 30 mg/kg daily): 3119
Number of genes, Whole Brain, Down-regulated ([6]; 30 mg/kg daily): 2087
Number of genes, Whole Brain, No Change ([6]; 30 mg/kg daily): 11760
Number of genes, Whole Brain, Up-regulated ([6]; 30 mg/kg daily): 2463
Number of genes, Quadriceps, Down-regulated ([6]; 45 mg/kg daily): 331
Number of genes, Quadriceps, No Change ([6]; 45 mg/kg daily): 15364
Number of genes, Quadriceps, Up-regulated ([6]; 45 mg/kg daily): 615
Number of genes, Whole Brain, Down-regulated ([6]; 45 mg/kg daily): 1114
Number of genes, Whole Brain, No Change ([6]; 45 mg/kg daily): 14218
Number of genes, Whole Brain, Up-regulated ([6]; 45 mg/kg daily): 978
EC50 [7]: 30 nM
effect on mineralocorticoid receptor signaling [8]: antagonist
